In PubChem BioAssay AID1963976 (Molecular Pharmacology Branch, DTP, NCI, 2024):
pIC50: −log10 of the molar value. Each block holds one compound with its values, some of them ahead of it.

System: 435261-313-R-J1-PDC tumor spheroid viability
Assay: Anticancer human tumor 435261-313-R-J1-PDC patient-derived colon adenocarcinoma cell line growth inhibition [PI3K]
Settings: spheroids with HUVEC and MSC; for pIC50: curve of first compound; for viability, T/C: stronger effect = lower value
In short: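 Multi-cell spheroids combine tumor cells with HUVEC and human MSCs, treated with targeted agents alone or with inavolisib, alpelisib, duvelisib or copanlisib. Concentrations fall in half-log steps from at or near clinical Cmax, or from 10 microM where Cmax is unknown; viability read-out.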

[1] = second compound 0.00316 µM, first compound 0.0316 µM
[2] = second compound 0.00316 µM, first compound 0.1 µM
[3] = second compound 0.00316 µM, first compound 0.316 µM
[4] = second compound 0.00316 µM, first compound 1 µM
[5] = second compound 0.01 µM, first compound 0.0316 µM
[6] = second compound 0.01 µM, first compound 0.1 µM
[7] = second compound 0.01 µM, first compound 0.316 µM
[8] = second compound 0.01 µM, first compound 1 µM
[9] = second compound 0.0316 µM, first compound 0.0316 µM
[10] = second compound 0.0316 µM, first compound 0.1 µM
[11] = second compound 0.0316 µM, first compound 0.316 µM
[12] = second compound 0.0316 µM, first compound 1 µM
[13] = second compound 0.1 µM, first compound 0.0316 µM
[14] = second compound 0.1 µM, first compound 0.1 µM
[15] = second compound 0.1 µM, first compound 0.316 µM
[16] = second compound 0.1 µM, first compound 1 µM
[17] = second compound 0.316 µM, first compound 0.0316 µM
[18] = second compound 0.316 µM, first compound 0.1 µM
[19] = second compound 0.316 µM, first compound 0.316 µM
[20] = second compound 0.316 µM, first compound 1 µM
[21] = second compound 1 µM, first compound 0.0316 µM
[22] = second compound 1 µM, first compound 0.1 µM
[23] = second compound 1 µM, first compound 0.316 µM
[24] = second compound 1 µM, first compound 1 µM
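Further: spheroids exposed to compounds for 7 days.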

pIC50 (second compound 0.00316 µM): 7.28
pIC50 (second compound 0.01 µM): > 8.50
pIC50 (second compound 0.0316 µM): > 8.50
pIC50 (second compound 0.1 µM): > 8.50
pIC50 (second compound 0.316 µM): > 8.50
pIC50 (second compound 1 µM): > 8.50
SMILES: CCN1CCN(Cc2ccc(Nc3ncc(F)c(-c4cc(F)c5nc(C)n(C(C)C)c5c4)n3)nc2)CC1 + COc1c(OCCCN2CCOCC2)ccc2c3n(c(=NC(=O)c4cnc(N)nc4)nc12)CCN3
viability, T/C (second compound 0.00316 µM, first compound 0.00316 µM): 49.3%
viability, T/C (second compound 0.00316 µM, first compound 0.01 µM): 57.2%
viability, T/C [1]: 65.2%
viability, T/C [2]: 35.8%
viability, T/C [3]: 40.6%
viability, T/C [4]: 46.6%
viability, T/C (second compound 0.01 µM, first compound 0.00316 µM): 42.3%
viability, T/C (second compound 0.01 µM, first compound 0.01 µM): 39.8%
viability, T/C [5]: 35.4%
viability, T/C [6]: 33%
viability, T/C [7]: 32.7%
viability, T/C [8]: 42.5%
viability, T/C (second compound 0.0316 µM, first compound 0.00316 µM): 28.9%
viability, T/C (second compound 0.0316 µM, first compound 0.01 µM): 22.6%
viability, T/C [9]: 24.1%
viability, T/C [10]: 23.3%
viability, T/C [11]: 26.6%
viability, T/C [12]: 25.2%
viability, T/C (second compound 0.1 µM, first compound 0.00316 µM): 15.2%
viability, T/C (second compound 0.1 µM, first compound 0.01 µM): 15.4%
viability, T/C [13]: 18.1%
viability, T/C [14]: 13.7%
viability, T/C [15]: 15.6%
viability, T/C [16]: 16.7%
viability, T/C (second compound 0.316 µM, first compound 0.00316 µM): 8.47%
viability, T/C (second compound 0.316 µM, first compound 0.01 µM): 8.29%
viability, T/C [17]: 8.24%
viability, T/C [18]: 6.93%
viability, T/C [19]: 8.43%
viability, T/C [20]: 9.13%
viability, T/C (second compound 1 µM, first compound 0.00316 µM): 4.09%
viability, T/C (second compound 1 µM, first compound 0.01 µM): 3.66%
viability, T/C [21]: 3.83%
viability, T/C [22]: 2.75%
viability, T/C [23]: 3.7%
viability, T/C [24]: 3.49%

pIC50 (second compound 0.00316 µM): 6.62
pIC50 (second compound 0.01 µM): 7.01
pIC50 (second compound 0.0316 µM): > 7.50
pIC50 (second compound 0.1 µM): > 7.50
pIC50 (second compound 0.316 µM): > 7.50
pIC50 (second compound 1 µM): > 7.50
SMILES: Cn1nccc1Nc1nccc(-c2ccn(C(CO)c3ccc(Cl)c(F)c3)c(=O)c2)n1 (centres undefined) + COc1c(OCCCN2CCOCC2)ccc2c3n(c(=NC(=O)c4cnc(N)nc4)nc12)CCN3
viability, T/C [1]: 70.2%
viability, T/C [2]: 56.1%
viability, T/C [3]: 47.6%
viability, T/C [4]: 32.4%
viability, T/C (second compound 0.00316 µM, first compound 3.16 µM): 34.9%
viability, T/C (second compound 0.00316 µM, first compound 10 µM): 13.1%
viability, T/C [5]: 64.3%
viability, T/C [6]: 48.8%
viability, T/C [7]: 38.8%
viability, T/C [8]: 26.3%
viability, T/C (second compound 0.01 µM, first compound 3.16 µM): 22.4%
viability, T/C (second compound 0.01 µM, first compound 10 µM): 14.3%
viability, T/C [9]: 31.7%
viability, T/C [10]: 28.7%
viability, T/C [11]: 17.7%
viability, T/C [12]: 17.9%
viability, T/C (second compound 0.0316 µM, first compound 3.16 µM): 17.3%
viability, T/C (second compound 0.0316 µM, first compound 10 µM): 9.88%
viability, T/C [13]: 17.7%
viability, T/C [14]: 13.6%
viability, T/C [15]: 10.8%
viability, T/C [16]: 8.53%
viability, T/C (second compound 0.1 µM, first compound 3.16 µM): 5.16%
viability, T/C (second compound 0.1 µM, first compound 10 µM): 1.19%
viability, T/C [17]: 9.14%
viability, T/C [18]: 5.37%
viability, T/C [19]: 3.27%
viability, T/C [20]: 2.55%
viability, T/C (second compound 0.316 µM, first compound 3.16 µM): 0.85%
viability, T/C (second compound 0.316 µM, first compound 10 µM): 0.46%
viability, T/C [21]: 4.18%
viability, T/C [22]: 2.97%
viability, T/C [23]: 1.36%
viability, T/C [24]: 1.15%
viability, T/C (second compound 1 µM, first compound 3.16 µM): 0.78%
viability, T/C (second compound 1 µM, first compound 10 µM): 0.48%
